Data: patent US20240350475A1, “TR[…] CARD[…] BY SARS-COV-2 SPIKE PROTEIN UNDER OBESITY” (priority 2023, published 2024)
“Also recorded” adds a separate entry of the source.

Assays:
HEK_Spike cells = assay: Palmitic acid (PA)-induced lipotoxicity assay in Spike cells, with or without inhibitors (PI/Hoechst cell viability); type: cell-based, Human; conditions: for PA-induced Spike protein-exaggerated lipotoxicity (necrosis, cell viability): Spike cells, then 750 M PA 24 h, DMEM 5% FBS
Protocol: (§1) The HEK293, HEK_pcDNA, and HEK_Spike cells were cultured in a 96-well plate and reached to 80% confluence on the next day before treatment. The cells were kept in DMEM medium with 5% FBS during the entire treatment procedure. The cells were treated with PA (free BSA) in various concentrations from 250 to 1000 M for 24, 48, or 72 h.
(§2) For treatment control groups, the cells were treated by the same concentrations of BSA in parallel. For the inhibitory assay, the cells were pre-incubated by autophagic inhibitors (125 M trigonelline (TRG), or 10 M Wortmannin), or a ferropotosis inhibitor (ferrostatin, 2 M), or an […] (necrostatin-1, 10 M) in DMEM medium with 5% FBS for 2 h, followed by 750 M PA treatment for 24 h. The cells were then co-stained by Propidium Iodide (PI) and Hoechst 33342 NucBlue Live Cell Stain dye (ThermoFisher) to show the dead and live cells. The dyes were excited at 535 nm and 405 nm, respectively. TRG may be provided over a range of concentration such as 50 to 300 M, 60 to 290, 70 to 280, 80 to 270, 90 to 260, 100 to 250, 110 to 240, 120 to 230, 130 to 220, 140 to 210, 150 to 200, 160 to 190, 170 to 180, as well as sub ranges such as from 100M to 200 M, 125M to 175 M, etc., also include individual concentrations, such as 125M, 150 M, 175M, etc. Wortmannin may be provided over a range of concentrations from 5 to 100, 10 to 90, 15 to 80, 20 to 70, 25 to 60, 30 to 50 M, etc., including subranges and individual concentrations within these ranges.
Images were acquired and cell viability analyses were performed using an ImagXpress Pico Automated system.

[1] = test system: HEK293 and HEK_pcDNA cells; assay: Palmitic acid (PA)-induced lipotoxicity assay in control cells; type: cell-based, Human; conditions: PA overload; HEK293 (mock) and pcDNA cells; DMEM 5% FBS
Protocol: as §1
as §2, with “Wortmannin may be provided over a range of concentrations from 5 to 100, 10 to 90, 15 to 80, 20 to 70, 25 to 60, 30 to 50 M, etc., including subranges and individual concentrations within these ranges.” left out

[2] = test system: Human dermal microvascular ECs (hDMVECs); type: cell-based
H9C2 cells [3] = assay: Spike-exosome induced mitochondrial morphology change in H9C2 cells (MitoTracker, confocal); type: cell-based; conditions: spike-exo 150 μg exosomal proteins in 1 ml medium plus TRG 125 μM, 5 days
H9C2 cells [4] = test system: H9C2 cells

## CCCCCCCCCCCCCCCC(=O)O [PA, Palmitic acid]
HEK_Spike cells; 500 M and 250 M PA, after 72 h treatment
  effect of PA on the Spike cells: modest or mild effect
HEK_Spike cells; Spike cells versus mock and pcDNA cells, PA 750 or 1000 M, 24 to 72 h
  PA-induced cell death (lipotoxicity): significantly augmented
[1]
  PA-induced cell death (lipotoxicity): induced cell death

## C[n+]1cccc(C(=O)[O-])c1 [TRG, Trigonelline]
HEK_Spike cells; pre-incubated with 125 M TRG 2 h
  PA-induced Spike protein-exaggerated lipotoxicity (necrosis, cell viability): can attenuate; also recorded: can be suppressed; also recorded: significantly mitigated
HEK_Spike cells; pre-incubated with 125 M TRG 2 h, listed as trigonelline
  PA-induced Spike protein-exaggerated lipotoxicity (necrosis, cell viability): could be attenuated
[2]
  cellular ROS levels: attenuated
  density of mitochondria decreased by Spike-EVs plus LDL-c: could restore
  diameter of mitochondria decreased by Spike-EVs plus LDL-c: could restore
H9C2 cells [3]
  spike-exo induced mitochondrial fusion (mitochondrial morphology): can reverse
H9C2 cells [4]
  PA-induced Spike protein-exaggerated lipotoxicity (cell viability): could be reversed

## CCOC(=O)c1ccc(NC2CCCCC2)c(N)c1 [ferrostatin]
HEK_Spike cells; pre-incubated with ferrostatin 2 M 2 h
  PA-induced Spike protein-exaggerated lipotoxicity (necrosis, cell viability): significantly mitigated
HEK_Spike cells; pre-incubated with ferrostatin 2 M 2 h, listed as ferrostatin 1
  PA-induced Spike protein-exaggerated lipotoxicity (necrosis, cell viability): can be suppressed
